This is an account of results in US8178534B2, “cMET inhibitors” (Takeda Pharmaceutical Company Limited, priority 2008, dated 2012).

Assay [1] has as its system A549. Put plainly: Inhibition of cell viability (MTS), A549 (negative control line). The class given is cell-based. To be noted: A549 cells (negative control), 96 hours incubation. A digest of the protocol:
(§1)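 Cells seeded at 2,000-7,500/well, attached ~24 h, then treated in duplicate with 1:2.5 serial dilutions at 0.5% final DMSO. Viability by MTS; EC50 from non-linear fit after background correction and normalisation to DMSO. MKN45 and EBC1 are cMET-dependent; A549 serves as negative control.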

The target of assay [2] is T1, cMET enzyme (amino acids 1023-1360) (Homo sapiens, UniProt P08581).
T1 construct: The cMET enzyme (amino acids 1023-1360) nominally at 24 μM was held at −80° C. until use; His tag (N, cleaved yes); made in house; host or cells: Sf9 cells
T1 sequence (P08581 1023-1360): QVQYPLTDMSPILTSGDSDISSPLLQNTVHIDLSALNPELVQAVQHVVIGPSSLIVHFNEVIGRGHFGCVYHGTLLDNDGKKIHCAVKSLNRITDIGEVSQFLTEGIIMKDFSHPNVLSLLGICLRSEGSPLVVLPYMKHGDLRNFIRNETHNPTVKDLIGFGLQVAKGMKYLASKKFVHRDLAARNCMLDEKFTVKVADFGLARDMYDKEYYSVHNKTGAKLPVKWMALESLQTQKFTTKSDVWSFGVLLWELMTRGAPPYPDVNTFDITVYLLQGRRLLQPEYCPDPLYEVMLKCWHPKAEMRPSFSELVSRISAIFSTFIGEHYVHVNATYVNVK
In words: Determination of inhibition of cMET (capillary electrophoresis, phosphorylated peptide product). Type of assay: biochemical. To be noted: 1.2 nM cMET, 50 μM ATP, 2 μM FL-2 peptide, 2 hours room temperature.

Assay [3] concerns MKN45. Put plainly: Inhibition of cell viability (MTS), MKN45. The class given is cell-based. To be noted: MKN45 cells, 96 hours incubation. A digest of the protocol:
as §1

The test system of assay [4] is EBC1. Put plainly: Inhibition of cell viability (MTS), EBC1. The class given is cell-based. To be noted: EBC1 cells, 96 hours incubation. A digest of the protocol: as §1

As usually defined, the EC50 is the midpoint of the concentration-response curve. Low values mean greater potency, high ones weaker potency. For orientation: IC50 means the midpoint of a concentration-inhibition curve. The low end stands for greater potency, the high end for weaker potency.

Regarding `O=C(Nc1cn2nc(Cn3nnc4ccc(-c5cccc(F)c5)cc43)ccc2n1)C1CC1` [Compound 14], the half-maximal effective concentration (EC50) was in the range of 600 to 1600 nM in assay [1] (Homo sapiens, A549, 96 h); 250 to 630 nM in assay [3] (Homo sapiens, MKN-45, 96 h); 100 to 199 nM in assay [4] (Homo sapiens, EBC-1, 96 h). The half-inhibitory concentration (IC50) in assay [2] lay within 30 to 59 nM.
Taken in the same sequence, the figures for `CCOc1ccc(-c2ccc3nnc(C(C)c4ccc5nc(NC(=O)C6CC6)cn5n4)n3c2)cc1` (stereo not shown) [Compound 69, N-(6-(1-(6-(4-ethoxyphenyl)-[1,2,4]triazolo[4,3-a]pyridin-3-yl)ethyl)imidazo[1,2-b]pyridazin-2-yl)cyclopropanecarboxamide] were more than 50000 nM, less than 30 nM, less than 30 nM and less than 30 nM.
In the case of `CC(c1ccc2nc(NC(=O)C3CC3)cn2n1)c1nnc2ccc(-c3cnn(C)c3)cn12` (stereo not shown) [49 (free base), N-(6-(1-(6-(1-methyl-1H-pyrazol-4-yl)-[1,2,4]triazolo[4,3-a]pyridin-3-yl)ethyl)imidazo[1,2-b]pyridazin-2-yl)cyclopropanecarboxamide], the 50% effective concentration (EC50) in assay [1] was more than 50000 nM; in assay [3] it was 60 to 100 nM; in assay [4], less than 30 nM. This molecule gave a half-inhibitory concentration (IC50) in assay [2] of less than 30 nM.
As for `CC(c1ccc2nc(NC(=O)C3CC3)cn2n1)c1nnc2ccccn12` (stereo not shown) [Compound 52, N-(6-(1-([1,2,4]triazolo[4,3-a]pyridin-3-yl)ethyl)imidazo[1,2-b]pyridazin-2-yl)cyclopropanecarboxamide], the concentration for a half-maximal effect (EC50) in assay [1] (Homo sapiens, A549, 96 h) is more than 50000 nM; in assay [3] (Homo sapiens, MKN-45, 96 h) it was more than 100 nM; in assay [4] (Homo sapiens, EBC-1, 96 h), more than 100 nM. Further, the concentration for half-maximal inhibition (IC50) in assay [2] was more than 100 nM.
Turning to `CC(C)CNC(=O)c1ccc2nnc(Sc3ccc4nc(NC(=O)C5CC5)cn4n3)n2c1` [Compound 35, 3-(2-(cyclopropanecarboxamido)imidazo[1,2-b]pyridazin-6-ylthio)-N-isobutyl-[1,2,4]triazolo[4,3-a]pyridine-6-carboxamide], the EC50 in assay [1] (Homo sapiens, A549, 96 h) is more than 19500 nM; in assay [3] (Homo sapiens, MKN-45, 96 h), more than 630 nM; in assay [4] (Homo sapiens, EBC-1, 96 h), 100 to 199 nM. This molecule also showed an IC50 in assay [2] of more than 100 nM.
Taken in the same sequence, the figures for `Cc1csc(-c2ccc3nnc(C(C)c4ccc5nc(NC(=O)C6CC6)cn5n4)n3c2)c1` (stereo not shown) [Compound 62, N-(6-(1-(6-(4-methylthiophen-2-yl)-[1,2,4]triazolo[4,3-a]pyridin-3-yl)ethyl)imidazo[1,2-b]pyridazin-2-yl)cyclopropanecarboxamide] were 5000 to 8000 nM, less than 30 nM, less than 30 nM and less than 30 nM.
On to `COCCn1cc(-c2ccc3nnc(Sc4ccc5nc(NC(=O)C6CC6)cn5n4)n3c2)cn1` [Compound 31, N-(6-(6-(1-(2-methoxyethyl)-1H-pyrazol-4-yl)-[1,2,4]triazolo[4,3-a]pyridin-3-ylthio)imidazo[1,2-b]pyridazin-2-yl)cyclopropanecarboxamide], for which the half-maximal effective concentration (EC50) was more than 50000 nM in assay [1] (Homo sapiens, A549, 96 h); less than 100 nM in assay [3] (Homo sapiens, MKN-45, 96 h); less than 35 nM in assay [4] (Homo sapiens, EBC-1, 96 h). In addition, the IC50 in assay [2] lay within 30 to 59 nM.
In the case of `COc1ccc(-c2ccc3nnc(C(C)c4ccc5nc(NC(=O)C6CC6)cn5n4)n3c2)cc1` (stereo not shown) [Compound 56, N-(6-(1-(6-(4-methoxyphenyl)-[1,2,4]triazolo[4,3-a]pyridin-3-yl)ethyl)imidazo[1,2-b]pyridazin-2-yl)cyclopropanecarboxamide], the 50% effective concentration (EC50) in assay [1] (Homo sapiens, A549, 96 h) is more than 50000 nM; in assay [3] (Homo sapiens, MKN-45, 96 h) it was less than 30 nM; in assay [4] (Homo sapiens, EBC-1, 96 h), less than 30 nM. The molecule further showed an IC50 in assay [2] of less than 30 nM.
Turning to `COc1cccc(-c2ccc3nnc(C(C)c4ccc5nc(NC(=O)C6CC6)cn5n4)n3c2)c1` (stereo not shown) [Compound 61, N-(6-(1-(6-(3-methoxyphenyl)-[1,2,4]triazolo[4,3-a]pyridin-3-yl)ethyl)imidazo[1,2-b]pyridazin-2-yl)cyclopropanecarboxamide], the EC50 in assay [1] (Homo sapiens, A549, 96 h) is more than 50000 nM; in assay [3] (Homo sapiens, MKN-45, 96 h) it was less than 30 nM; in assay [4] (Homo sapiens, EBC-1, 96 h), less than 30 nM. The IC50 in assay [2] was less than 30 nM.
Regarding `O=C(Nc1cn2nc(Sc3nnc4ccc(-c5cnn(CCO)c5)cn34)ccc2n1)C1CC1` [Compound 32], the EC50 is more than 50000 nM in assay [1] (Homo sapiens, A549, 96 h); 100 to 249 nM in assay [3] (Homo sapiens, MKN-45, 96 h); 35 to 99 nM in assay [4] (Homo sapiens, EBC-1, 96 h). This molecule also had a half-inhibitory concentration (IC50) in assay [2] of less than 30 nM.
Regarding `CC(c1ccc2nc(NC(=O)C3CC3)cn2n1)c1nnc2ccc(-c3cccc(N(C)C)c3)cn12` (stereo not shown) [Compound 73, N-(6-(1-(6-(3-(dimethylamino)phenyl)-[1,2,4]triazolo[4,3-a]pyridin-3-yl)ethyl)imidazo[1,2-b]pyridazin-2-yl)cyclopropanecarboxamide], the 50% effective concentration (EC50) was 8000 to 25000 nM in assay [1] (Homo sapiens, A549, 96 h); less than 30 nM in assay [3] (Homo sapiens, MKN-45, 96 h); less than 30 nM in assay [4] (Homo sapiens, EBC-1, 96 h). The molecule further yielded an IC50 in assay [2] of less than 30 nM.
Turning to `CC(c1ccc2nc(NC(=O)C3CC3)cn2n1)c1nnc2ccc(-c3cccc(S(C)(=O)=O)c3)cn12` (stereo not shown) [Compound 59, N-(6-(1-(6-(3-(methylsulfonyl)phenyl)-[1,2,4]triazolo[4,3-a]pyridin-3-yl)ethyl)imidazo[1,2-b]pyridazin-2-yl)cyclopropanecarboxamide], the concentration giving a half-maximal response (EC50) in assay [1] (Homo sapiens, A549, 96 h) is more than 50000 nM; in assay [3] (Homo sapiens, MKN-45, 96 h) it was 100 to 249 nM; in assay [4] (Homo sapiens, EBC-1, 96 h), 60 to 100 nM. The IC50 in assay [2] was less than 30 nM.
Taken in the same sequence, the figures for `COCCOc1ccc(-c2ccc3nnc(C(F)(F)c4ccc5nc(NC(=O)C6CC6)cn5n4)n3c2)cc1` [Compound 91, N-(6-(difluoro(6-(4-(2-methoxyethoxy)phenyl)-[1,2,4]triazolo[4,3-a]pyridin-3-yl)methyl)imidazo[1,2-b]pyridazin-2-yl)cyclopropanecarboxamide] were more than 50000 nM, less than 30 nM, less than 30 nM and less than 30 nM.
`CCS(=O)(=O)c1cccc(-c2ccc3nnn(Cc4ccc5nc(NC(=O)C6CC6)cn5n4)c3c2)c1` [Compound 18]: the EC50 in assay [1] (Homo sapiens, A549, 96 h) is more than 19500 nM; in assay [3] (Homo sapiens, MKN-45, 96 h), 100 to 249 nM; in assay [4] (Homo sapiens, EBC-1, 96 h), 100 to 199 nM. The same molecule had an IC50 in assay [2] of 30 to 59 nM.
On to `O=C(Nc1cn2nc(Sc3nnc4ccc(-c5ccc(N6CCOCC6)nc5)cn34)ccc2n1)C1CC1` [Compound 103, N-(6-(6-(6-morpholinopyridin-3-yl)-[1,2,4]triazolo[4,3-a]pyridin-3-ylthio)imidazo[1,2-b]pyridazin-2-yl)cyclopropanecarboxamide], for which the concentration giving a half-maximal response (EC50) in assay [1] (Homo sapiens, A549, 96 h) is more than 50000 nM; in assay [3] (Homo sapiens, MKN-45, 96 h), 30 to 59 nM; in assay [4] (Homo sapiens, EBC-1, 96 h), less than 30 nM. Besides, the IC50 in assay [2] was less than 30 nM.
In the case of `O=C(Nc1cn2nc(Cn3nnc4ccc(-c5cccnc5)cc43)ccc2n1)C1CC1` [Compound 16], the EC50 in assay [1] (Homo sapiens, A549, 96 h) is more than 50000 nM; in assay [3] (Homo sapiens, MKN-45, 96 h), more than 630 nM; in assay [4] (Homo sapiens, EBC-1, 96 h), more than 200 nM. In addition, the half-inhibitory concentration (IC50) in assay [2] was more than 100 nM.
As to `COc1cccc(-c2ccc3nnc(Sc4ccc5nc(NC(=O)C6CC6)cn5n4)n3c2)n1` [Compound 101, N-(6-(6-(6-methoxypyridin-2-yl)-[1,2,4]triazolo[4,3-a]pyridin-3-ylthio)imidazo[1,2-b]pyridazin-2-yl)cyclopropanecarboxamide], the EC50 in assay [1] (Homo sapiens, A549, 96 h) was more than 50000 nM; in assay [3] (Homo sapiens, MKN-45, 96 h), 100 to 249 nM; in assay [4] (Homo sapiens, EBC-1, 96 h), 30 to 59 nM. Also, in assay [2], the IC50 was less than 30 nM.
Taken in the same sequence, the figures for `CNC(=O)c1ccc(-c2ccc3nnc(C(F)(F)c4ccc5nc(NC(=O)C6CC6)cn5n4)n3c2)cc1F` [Compound 98, 4-(3-((2-(cyclopropanecarboxamido)imidazo[1,2-b]pyridazin-6-yl)difluoromethyl)-[1,2,4]triazolo[4,3-a]pyridin-6-yl)-2-fluoro-N-methylbenzamide] were more than 50000 nM, less than 30 nM, less than 30 nM and less than 30 nM.
Turning to `COc1ccc(-c2ccc3nnc(C(C)c4ccc5nc(NC(=O)C6CC6)cn5n4)n3c2)cc1C` (stereo not shown) [Compound 70, N-(6-(1-(6-(4-methoxy-3-methylphenyl)-[1,2,4]triazolo[4,3-a]pyridin-3-yl)ethyl)imidazo[1,2-b]pyridazin-2-yl)cyclopropanecarboxamide], the concentration for a half-maximal effect (EC50) in assay [1] (Homo sapiens, A549, 96 h) was more than 50000 nM; in assay [3] (Homo sapiens, MKN-45, 96 h) it was less than 30 nM; in assay [4] (Homo sapiens, EBC-1, 96 h), less than 30 nM. Moreover, the IC50 in assay [2] was less than 30 nM.
With `O=C(Nc1cn2nc(Sc3nnc4ccc(C(F)(F)F)cn34)ccc2n1)C1CC1` [Compound 41, N-(6-(6-(trifluoromethyl)-[1,2,4]triazolo[4,3-a]pyridin-3-ylthio)imidazo[1,2-b]pyridazin-2-yl)cyclopropanecarboxamide], the EC50 was 8000 to 25000 nM in assay [1] (Homo sapiens, A549, 96 h); 100 to 249 nM in assay [3] (Homo sapiens, MKN-45, 96 h); 35 to 99 nM in assay [4] (Homo sapiens, EBC-1, 96 h). This molecule showed an IC50 in assay [2] of 60 to 100 nM.
As for `CC(c1ccc2nc(NC(=O)C3CC3)cn2n1)c1nnc2ccc(-c3ccc(C(N)=O)cc3)cn12` (stereo not shown) [Compound 67, 4-(3-(1-(2-(cyclopropanecarboxamido)imidazo[1,2-b]pyridazin-6-yl)ethyl)-[1,2,4]triazolo[4,3-a]pyridin-6-yl)benzamide], the 50% effective concentration (EC50) is more than 50000 nM in assay [1] (Homo sapiens, A549, 96 h); 100 to 249 nM in assay [3] (Homo sapiens, MKN-45, 96 h); 60 to 100 nM in assay [4] (Homo sapiens, EBC-1, 96 h). Moreover, in assay [2], the 50% inhibitory concentration (IC50) was less than 30 nM.
In the case of `O=C(Nc1cn2nc(Sc3nnc4ccc(-c5cccc(F)c5)cn34)ccc2n1)C1CC1` [Compound 44, N-(6-(6-(3-fluorophenyl)-[1,2,4]triazolo[4,3-a]pyridin-3-ylthio)imidazo[1,2-b]pyridazin-2-yl)cyclopropanecarboxamide], the EC50 in assay [1] (Homo sapiens, A549, 96 h) is 600 to 1600 nM; in assay [3] (Homo sapiens, MKN-45, 96 h), less than 100 nM; in assay [4] (Homo sapiens, EBC-1, 96 h), less than 35 nM. In addition, in assay [2], the half-inhibitory concentration (IC50) is less than 30 nM.
